Reference: US20250223268A1, “4-Methylsulfonylbenzamide Compound, Preparation Method, Herbicidal Composition And Use” (Jiangsu Flag Chemical Industry Co., Ltd., priority 2022, published 2025)

Experiments:
Test in all cases: Greenhouse herbicidal activity assay, post-emergence
Format in all cases: in vivo
Conditions in all cases: Post-emergence test, rate 150 g a.i./hm^2; grade by fresh weight inhibition rate
Eclipta prostrata = system: Eclipta prostrata
Outline: (§1)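 Weeds were sown in nutrient soil in 7 cm pots and grown in a growth chamber to the 3-6 leaf stage, then foliar-sprayed, air-dried and returned to the chamber. Fresh weight inhibition was scored 14-21 days later in bands from A (≥80% to 100%) to E (<20%).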

Cyperus iria = system: Cyperus iria
Outline: as §1

Leptochloa chinensis = system: Leptochloa chinensis
Outline: as §1

Echinochloa crusgalli = system: Echinochloa crusgalli
Outline: as §1

Digitaria sanguinalis = system: Digitaria sanguinalis
Outline: as §1

Row | SMILES | Control efficacy grade, Eclipta prostrata (Eclipta prostrata) | Control efficacy grade, Cyperus iria (Cyperus iria) | Control efficacy grade, Leptochloa chinensis (Leptochloa chinensis) | Control efficacy grade, Echinochloa crusgalli (Echinochloa crusgalli) | Control efficacy grade, Digitaria sanguinalis (Digitaria sanguinalis)
1 | CCCC[S+]([O-])c1c(S(C)(=O)=O)ccc(C(=O)Nc2nonc2C)c1Cl (racemic) [Compound 4-12] | A (Fresh weight inhibition rate≥80% to 100%) | A (Fresh weight inhibition rate≥80% to 100%) | B (Fresh weight inhibition rate≥260% to <80%) | A (Fresh weight inhibition rate≥80% to 100%) | A (Fresh weight inhibition rate≥80% to 100%)
2 | Cc1nonc1NC(=O)c1ccc(S(C)(=O)=O)c([S+]([O-])C2CC2)c1Cl (racemic) [Compound 4-38] | A (Fresh weight inhibition rate≥80% to 100%) | A (Fresh weight inhibition rate≥80% to 100%) | A (Fresh weight inhibition rate≥80% to 100%) | A (Fresh weight inhibition rate≥80% to 100%) | A (Fresh weight inhibition rate≥80% to 100%)
3 | Cc1nonc1NC(=O)c1ccc(S(C)(=O)=O)c([S+]([O-])C2CCC2)c1Cl (racemic) [Compound 4-43] | A (Fresh weight inhibition rate≥80% to 100%) | A (Fresh weight inhibition rate≥80% to 100%) | A (Fresh weight inhibition rate≥80% to 100%) | A (Fresh weight inhibition rate≥80% to 100%) | A (Fresh weight inhibition rate≥80% to 100%)
4 | CCC[S+]([O-])c1c(S(C)(=O)=O)ccc(C(=O)Nc2nnnn2C)c1Cl (single isomer, unassigned) [Compound 1-3] | A (Fresh weight inhibition rate≥80% to 100%) | A (Fresh weight inhibition rate≥80% to 100%) | A (Fresh weight inhibition rate≥80% to 100%) | A (Fresh weight inhibition rate≥80% to 100%) | A (Fresh weight inhibition rate≥80% to 100%)
5 | CCC[S+]([O-])c1c(S(C)(=O)=O)ccc(C(=O)Nc2nnnn2C)c1Cl (single isomer, unassigned) [Compound 1-4] | A (Fresh weight inhibition rate≥80% to 100%) | A (Fresh weight inhibition rate≥80% to 100%) | A (Fresh weight inhibition rate≥80% to 100%) | A (Fresh weight inhibition rate≥80% to 100%) | A (Fresh weight inhibition rate≥80% to 100%)
6 | CC(C)[S+]([O-])c1c(S(C)(=O)=O)ccc(C(=O)Nc2nnnn2C)c1Cl (single isomer, unassigned) [Compound 1-8] | A (Fresh weight inhibition rate≥80% to 100%) | A (Fresh weight inhibition rate≥80% to 100%) | A (Fresh weight inhibition rate≥80% to 100%) | A (Fresh weight inhibition rate≥80% to 100%) | A (Fresh weight inhibition rate≥80% to 100%)
7 | CC(C)[S+]([O-])c1c(S(C)(=O)=O)ccc(C(=O)Nc2ncnn2C)c1Cl (single isomer, unassigned) [Compound 2-8] | A (Fresh weight inhibition rate≥80% to 100%) | A (Fresh weight inhibition rate≥80% to 100%) | A (Fresh weight inhibition rate≥80% to 100%) | A (Fresh weight inhibition rate≥80% to 100%) | A (Fresh weight inhibition rate≥80% to 100%)
